Results on 44 compounds are retold here after patent US8173635B2, “Kinase inhibitors” (Vertex Pharmaceuticals Incorporated, priority 2007, dated 2012).

Format in all cases: biochemical
In one test the target is PKC theta kinase (Homo sapiens, UniProt Q04759). The test is described as follows: PKC theta kinase inhibition, coupled-enzyme NADH absorbance assay (Ki). Conditions: 240 μM ATP, 18 nM PKC theta, 30° C.; read-out: Ki PKC theta. The essentials: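 Enzyme and compound equilibrated 10 min at 30 °C before reaction in HEPES pH 7.5 buffer with MgCl2, NaCl, EDTA and Brij. Activity tracked as NADH loss at 340 nm through a coupled system. Initial-rate data fitted by non-linear regression to give Ki.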
PKC theta kinase, sequence (Q04759 whole entry): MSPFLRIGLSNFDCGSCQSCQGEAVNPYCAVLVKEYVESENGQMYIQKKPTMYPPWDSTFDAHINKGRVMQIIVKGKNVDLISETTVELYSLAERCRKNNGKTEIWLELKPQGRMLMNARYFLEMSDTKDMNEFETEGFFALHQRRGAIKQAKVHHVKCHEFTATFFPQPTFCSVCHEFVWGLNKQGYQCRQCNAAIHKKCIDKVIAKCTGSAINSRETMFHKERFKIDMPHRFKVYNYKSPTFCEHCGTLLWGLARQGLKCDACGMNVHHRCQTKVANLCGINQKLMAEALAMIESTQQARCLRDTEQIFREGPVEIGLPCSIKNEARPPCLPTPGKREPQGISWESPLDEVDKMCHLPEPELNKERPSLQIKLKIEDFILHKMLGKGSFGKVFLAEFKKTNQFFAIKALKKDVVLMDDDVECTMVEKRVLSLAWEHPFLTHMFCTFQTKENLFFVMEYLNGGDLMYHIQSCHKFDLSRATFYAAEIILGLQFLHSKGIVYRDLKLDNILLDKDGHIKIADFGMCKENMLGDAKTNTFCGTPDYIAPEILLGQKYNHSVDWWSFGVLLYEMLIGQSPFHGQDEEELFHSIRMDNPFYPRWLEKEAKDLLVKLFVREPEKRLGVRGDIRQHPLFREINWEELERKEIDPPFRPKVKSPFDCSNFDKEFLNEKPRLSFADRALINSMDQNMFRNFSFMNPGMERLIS

In another test the target is PKC delta kinase (Homo sapiens, UniProt Q05655). The test is described as follows: PKC delta kinase inhibition, coupled-enzyme NADH absorbance assay (Ki). To be noted: 150 μM ATP, 46 nM PKC delta, 30° C.; read-out: Ki PKC delta. Summed up: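 Assay buffer was 100 mM HEPES pH 7.5, 10 mM MgCl2, 25 mM NaCl, 0.1 mM EDTA, 0.01% Brij. Enzyme buffer was equilibrated with compound in DMSO for 10 min at 30 °C. Ki values were derived by non-linear regression of initial rate data.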
PKC delta kinase, sequence (Q05655 whole entry): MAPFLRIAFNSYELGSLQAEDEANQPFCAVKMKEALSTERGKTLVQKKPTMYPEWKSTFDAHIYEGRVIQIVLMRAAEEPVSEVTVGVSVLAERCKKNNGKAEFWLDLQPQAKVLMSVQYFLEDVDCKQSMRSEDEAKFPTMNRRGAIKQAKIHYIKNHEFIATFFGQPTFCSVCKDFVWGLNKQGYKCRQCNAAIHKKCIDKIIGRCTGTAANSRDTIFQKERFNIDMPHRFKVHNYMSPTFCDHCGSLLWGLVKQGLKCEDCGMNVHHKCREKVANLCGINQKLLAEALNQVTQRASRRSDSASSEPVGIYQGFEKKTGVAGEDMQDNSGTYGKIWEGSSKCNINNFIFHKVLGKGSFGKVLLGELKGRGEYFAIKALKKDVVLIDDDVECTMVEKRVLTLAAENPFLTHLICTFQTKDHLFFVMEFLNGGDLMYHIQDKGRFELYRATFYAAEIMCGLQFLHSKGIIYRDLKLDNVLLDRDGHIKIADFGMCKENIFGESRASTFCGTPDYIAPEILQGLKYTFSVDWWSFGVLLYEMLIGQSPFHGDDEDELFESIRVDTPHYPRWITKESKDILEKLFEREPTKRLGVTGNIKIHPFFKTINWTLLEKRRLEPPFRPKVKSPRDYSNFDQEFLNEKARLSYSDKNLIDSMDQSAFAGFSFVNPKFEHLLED

Another test addresses PKC alpha kinase (Homo sapiens, UniProt P17252). The test is described as follows: PKC alpha kinase inhibition, coupled-enzyme NADH absorbance assay (Ki). Conditions: 130 μM ATP, 4.5 nM PKC alpha, 30° C.; read-out: Ki PKC alpha.

In the case of `CC/C=C\C1(c2cccc(-c3ccnc4[nH]ncc34)c2)CCNC1` (stereo not drawn) [Compound 198], the figures for the Ki on PKC theta kinase, on PKC delta kinase and on PKC alpha kinase were less than 50 nM, less than 500 nM and less than 500 nM, respectively.
As for `CC(C)=CC1(c2cccc(-c3ccnc4[nH]ncc34)c2)CCNC1` (stereo not drawn) [Compound 199], the Ki is less than 50 nM at PKC theta kinase, less than 500 nM on PKC delta kinase and less than 500 nM at PKC alpha kinase.
For the compound `N#CCC1(c2cccc(-c3ccnc4[nH]ncc34)c2)CCNC1` (stereo not drawn) [Compound 200], the Ki is less than 50 nM at PKC theta kinase, less than 500 nM on PKC delta kinase and less than 500 nM at PKC alpha kinase.
Consider `FC(F)C1(c2cccc(-c3ccnc4[nH]ncc34)c2)CCNC1` (stereo not drawn) [Compound 201], for which the values for the Ki on PKC theta kinase, on PKC delta kinase and on PKC alpha kinase were less than 50 nM, less than 500 nM and less than 500 nM, respectively.
Take `C=C1CCc2ccc(-c3ccnc4[nH]ncc34)cc21` [Compound 202, 4-(3-Methylene-2,3-dihydro-1H-inden-5-yl)-1H-pyrazolo[3,4-b]pyridine]: the Ki at PKC theta kinase, on PKC delta kinase and on PKC alpha kinase was greater than 2800 nM throughout.
In the case of `OCC1CCc2ccc(-c3ccnc4[nH]ncc34)cc21` (stereo not drawn) [Compound 203, (6-(1H-Pyrazolo[3,4-b]pyridin-4-yl)-2,3-dihydro-1H-inden-1-yl)methanol], the results for the Ki on PKC theta kinase, on PKC delta kinase and at PKC alpha kinase were less than 2800 nM, greater than 2800 nM and greater than 2800 nM, respectively.
For `CCC(C)(CN)c1cccc(-c2ccnc3[nH]nc(Cl)c23)c1` (stereo not drawn) [Compound 204, 2-(3-(3-chloro-1H-pyrazolo[3,4-b]pyridin-4-yl)phenyl)-2-methylbutan-1-amine], the Ki on PKC theta kinase, on PKC delta kinase and on PKC alpha kinase was less than 50 nM throughout.
Regarding `N#CC1(c2cccc(-c3ccnc4[nH]nc(Cl)c34)c2)CC1` [Compound 205], the Ki on PKC theta kinase was less than 50 nM; at PKC delta kinase, less than 50 nM; at PKC alpha kinase, less than 500 nM.
For the compound `NCC1(c2cccc(-c3ccnc4[nH]nc(Cl)c34)c2)CCOCC1` [Compound 206], the Ki on PKC theta kinase was less than 50 nM; at PKC delta kinase, less than 500 nM; on PKC alpha kinase, less than 500 nM.
`Cc1cc(-c2ccnc3[nH]nc(Cl)c23)cc(C2(CN)CCC2)c1` [Compound 207]: the Ki on PKC theta kinase is less than 50 nM; at PKC delta kinase, less than 500 nM; at PKC alpha kinase, less than 500 nM.
On to `CCC(C)(CN)c1cc(CCCO)cc(-c2ccnc3[nH]nc(Cl)c23)c1` (stereo not drawn) [Compound 208], for which the Ki was less than 50 nM on PKC theta kinase, less than 500 nM at PKC delta kinase and less than 500 nM on PKC alpha kinase.
As for `Cc1cc(-c2ccnc3[nH]nc(Cl)c23)cc(C2(CN)CCOCC2)c1` [Compound 209], the Ki was less than 50 nM on PKC theta kinase, less than 500 nM at PKC delta kinase and less than 500 nM on PKC alpha kinase.
Regarding `CCCc1cc(-c2ccnc3[nH]nc(Cl)c23)cc(C(C)(CC)CN)c1` (stereo not drawn) [Compound 210], the results for the Ki at PKC theta kinase, on PKC delta kinase and at PKC alpha kinase were less than 50 nM, less than 2800 nM and less than 500 nM, respectively.
Regarding `CCc1cc(-c2ccnc3[nH]nc(Cl)c23)cc(C2(CN)CCC2)c1` [Compound 211], the Ki on PKC theta kinase is less than 50 nM; at PKC delta kinase, less than 2800 nM; at PKC alpha kinase, less than 500 nM.
For `CCC(C)(CN)c1cccc(-c2ccnc3[nH]nc(C)c23)c1` (stereo not drawn) [Compound 212, 2-methyl-2-(3-(3-methyl-1H-pyrazolo[3,4-b]pyridin-4-yl)phenyl)butan-1-amine], the Ki on PKC theta kinase, on PKC delta kinase and on PKC alpha kinase was less than 50 nM in each case.
In the case of `CCC(C)(CN)c1cccc(-c2ccnc3[nH]nc(C(F)(F)F)c23)c1` (stereo not drawn) [Compound 213, 2-methyl-2-(3-(3-(trifluoromethyl)-1H-pyrazolo[3,4-b]pyridin-4-yl)phenyl)butan-1-amine], the Ki on PKC theta kinase, on PKC delta kinase and at PKC alpha kinase was less than 50 nM throughout.
For the compound `NCC1(c2cccc(-c3ccnc4[nH]nc(C(F)(F)F)c34)c2)CCOCC1` [Compound 214], the Ki was less than 50 nM at PKC theta kinase, less than 500 nM at PKC delta kinase and less than 500 nM at PKC alpha kinase.
Take `Cc1cc(-c2ccnc3[nH]nc(C(F)(F)F)c23)cc(C2(CN)CCC2)c1` [Compound 215]: the Ki was less than 50 nM on PKC theta kinase, less than 500 nM on PKC delta kinase and less than 500 nM at PKC alpha kinase.
In the case of `C1=C(c2cccc(-c3ccnc4[nH]ncc34)c2)CCNC1` [Compound 216], the Ki on PKC theta kinase was less than 500 nM; on PKC delta kinase it was less than 2800 nM; at PKC alpha kinase, less than 2800 nM.
Take `C=CCc1cc(-c2ccnc3[nH]ncc23)cc(C(C)(C)CC#N)c1` [Compound 217]: the Ki on PKC theta kinase was less than 2800 nM; at PKC delta kinase, greater than 2000 nM; at PKC alpha kinase it was greater than 1200 nM.
Turning to `CCCc1cc(-c2ccnc3[nH]ncc23)cc(C(C)(C)CC#N)c1` [Compound 218], the Ki was less than 500 nM at PKC theta kinase, greater than 2000 nM at PKC delta kinase and less than 2800 nM at PKC alpha kinase.
Turning to `Cc1cnc2[nH]ncc2c1-c1cccc(C(C)(C)C#N)c1` [Compound 219], the Ki at PKC theta kinase is greater than 700 nM; on PKC delta kinase, greater than 2000 nM; on PKC alpha kinase it was greater than 1200 nM.
Regarding `N#C[C@]1(c2cccc(-c3ccnc4[nH]ncc34)c2)C[C@@H](O)C1` [Compound 220], the Ki on PKC theta kinase is less than 500 nM; at PKC delta kinase it was greater than 2000 nM; at PKC alpha kinase it was greater than 1200 nM.
For the compound `COc1ccc(C2(C#N)CCC2)cc1-c1ccnc2[nH]ncc12` [Compound 221], the Ki was greater than 700 nM on PKC theta kinase, greater than 2000 nM on PKC delta kinase and greater than 1200 nM at PKC alpha kinase.
As for `COc1ccc(C2(CN)CCC2)cc1-c1ccnc2[nH]ncc12` [Compound 222], the Ki at PKC theta kinase is greater than 700 nM; on PKC delta kinase, greater than 2000 nM; on PKC alpha kinase it was greater than 1200 nM.
In the case of `NC1(c2cccc(-c3ccnc4[nH]ncc34)c2)CC1` [Compound 223], the Ki is less than 2800 nM at PKC theta kinase, greater than 2000 nM at PKC delta kinase and greater than 1200 nM at PKC alpha kinase.
`N#CC(CCO)c1cccc(-c2ccnc3[nH]ncc23)c1` (stereo not drawn) [Compound 224]: the Ki on PKC theta kinase is less than 500 nM; at PKC delta kinase, greater than 2000 nM; on PKC alpha kinase it was greater than 1200 nM.
On to `N#CC(CCN)c1cccc(-c2ccnc3[nH]ncc23)c1` (stereo not drawn) [Compound 225], for which the Ki was less than 500 nM at PKC theta kinase, less than 2800 nM on PKC delta kinase and less than 2800 nM on PKC alpha kinase.
In the case of `N#CC1(c2cccc(-c3ccnc4[nH]ncc34)c2)CC(F)(F)C1` [Compound 226], the Ki on PKC theta kinase was greater than 700 nM; on PKC delta kinase, greater than 1200 nM; on PKC alpha kinase it was greater than 1200 nM.
In the case of `CCC(F)(CN)c1cc(C)cc(-c2ccnc3[nH]ncc23)c1` (stereo not drawn) [Compound 227], the Ki on PKC theta kinase was less than 50 nM; on PKC delta kinase, less than 2800 nM; on PKC alpha kinase it was less than 500 nM.
The matching figures for `CCC1(c2cc(C)cc(-c3ccnc4[nH]ncc34)c2)CNC(=O)O1` (stereo not drawn) [Compound 228]: less than 50 nM, less than 2800 nM and less than 500 nM.
The matching figures for `N#C[C@]1(c2cccc(-c3ccnc4[nH]ncc34)c2)C[C@H](N)C1` [Compound 229]: less than 50 nM, less than 500 nM and less than 500 nM.
With `c1cc(-c2ccnc3[nH]ncc23)cc(C2CCNCC2)c1` [Compound 230], the Ki on PKC theta kinase, at PKC delta kinase and at PKC alpha kinase was less than 2800 nM each time.
On to `C1=C(c2cccc(-c3ccnc4[nH]ncc34)c2)CNC1` [Compound 231], for which the values for the Ki on PKC theta kinase, on PKC delta kinase and on PKC alpha kinase were less than 500 nM, less than 2800 nM and less than 2800 nM, respectively.
`CCC(CN)c1cccc(-c2ccnc3[nH]ncc23)c1` (stereo not drawn) [Compound 232]: the Ki on PKC theta kinase was less than 50 nM; at PKC delta kinase it was less than 500 nM; at PKC alpha kinase, less than 500 nM.
For `NCC1(c2cccc(-c3ccnc4[nH]ncc34)c2)COC1` [Compound 233], the Ki at PKC theta kinase was less than 500 nM; on PKC delta kinase it was less than 2800 nM; on PKC alpha kinase it was greater than 1200 nM.
Consider `CC#CCC(C)(CN)c1cc(C)cc(-c2ccnc3[nH]ncc23)c1` (stereo not drawn) [Compound 234], for which the Ki on PKC theta kinase was less than 50 nM; on PKC delta kinase, less than 50 nM; on PKC alpha kinase it was less than 500 nM.
On to `NCC1(c2cccc(-c3ccnc4[nH]ncc34)c2)CC(F)(F)C1` [Compound 235], for which the Ki at PKC theta kinase was less than 50 nM; at PKC delta kinase, less than 500 nM; on PKC alpha kinase, greater than 1200 nM.
`Cc1cnc2[nH]ncc2c1-c1cccc(C(C)(C)CN)c1` [Compound 237, 2-methyl-2-(3-(5-methyl-1H-pyrazolo[3,4-b]pyridin-4-yl)phenyl)propan-1-amine]: the Ki on PKC theta kinase was less than 2800 nM; on PKC delta kinase, less than 2800 nM; on PKC alpha kinase, less than 500 nM.
For `CC(CC#N)c1cc(Br)cc(-c2ccnc3[nH]ncc23)c1` (stereo not drawn) [Compound 238], the Ki on PKC theta kinase is less than 500 nM; at PKC delta kinase, less than 2800 nM; on PKC alpha kinase, less than 2800 nM.
On to `CCC(C)(CC#N)c1cc(-c2ccnc3[nH]ncc23)cc(C(F)(F)CCC2CCCC2)c1` (stereo not drawn) [Compound 239], for which the figures for the Ki on PKC theta kinase, on PKC delta kinase and on PKC alpha kinase were greater than 700 nM, greater than 2000 nM and greater than 1200 nM, respectively.
With `N#CCCc1cc(-c2ccnc3[nH]ncc23)cc(C2(C#N)CC2)c1` [Compound 240], the Ki was less than 500 nM at PKC theta kinase, greater than 2000 nM at PKC delta kinase and greater than 1200 nM at PKC alpha kinase.
For the compound `CCC(C)(CO)c1cc(C)cc(-c2ccnc3[nH]ncc23)c1` (stereo not drawn) [Compound 241], the results for the Ki at PKC theta kinase, at PKC delta kinase and at PKC alpha kinase were less than 50 nM, less than 2800 nM and less than 500 nM, respectively.
Consider `OCC1(c2cccc(-c3ccnc4[nH]ncc34)c2)CCC1` [Compound 242], for which the figures for the Ki on PKC theta kinase, at PKC delta kinase and on PKC alpha kinase were less than 500 nM, greater than 2000 nM and greater than 1200 nM, respectively.
